Test results published in patent publication US11331369B2, “Endoparasitic depsipeptides” (Zoetis Services LLC, priority 2017, dated 2022).

system: microfilariae of Dirofilaria immitis; experiment: Dirofilaria immitis, Microfilaria (DiMF) In vitro Assay; type: cell-based; details: 72 h, read-out: DiMF Minimum Effective Dose (MED), approximately 72 hours incubation, microfilariae assessed for survival or paralysis

Structure (SMILES)	minimal effective concentration
CC(C)C[C@H]1C(=O)O[C@H](Cc2ccc(Cn3cc(OC4COC4)cn3)cc2)C(=O)N(C)[C@@H](CC(C)C)C(=O)O[C@H](C)C(=O)N(C)[C@@H](CC(C)C)C(=O)O[C@H](Cc2ccc(Cn3cc(OC4COC4)cn3)cc2)C(=O)N(C)[C@@H](CC(C)C)C(=O)O[C@H](C)C(=O)N1C [Example 1b-142, (3S,6R,9S,12R,15S,18R,21S,24R)-3,9,15,21-tetraisobutyl-4,6,10,16,18,22-hexamethyl-12,24-bis(4-((4-(oxetan-3-yloxy)-1H-pyrazol-1-yl)methyl)benzyl)-1,7,13,19-tetraoxa-4,10,16,22-tetraazacyclotetracosan-2,5,8,11,14,17,20,23-octaone]	0.001 to 0.01 µM
CC(C)C[C@H]1C(=O)O[C@H](Cc2ccc(Cn3nccc3N)cc2)C(=O)N(C)[C@@H](CC(C)C)C(=O)O[C@H](C)C(=O)N(C)[C@@H](CC(C)C)C(=O)O[C@H](Cc2ccc(Cn3nccc3N)cc2)C(=O)N(C)[C@@H](CC(C)C)C(=O)O[C@H](C)C(=O)N1C [Example 1b-144, (3S,6R,9S,12R,15S,18R,21S,24R)-6,18-bis(4-((5-amino-1H-pyrazol-1-yl)methyl)benzyl)-3,9,15,21-tetraisobutyl-4,10,12,16,22,24-hexamethyl-1,7,13,19-tetraoxa-4,10,16,22-tetraazacyclotetracosan-2,5,8,11,14,17,20,23-octaone]	0.01 to 0.1 µM
CC(C)C[C@H]1C(=O)O[C@H](Cc2ccc(Cn3ccc(OC(F)F)n3)cc2)C(=O)N(C)[C@@H](CC(C)C)C(=O)O[C@H](C)C(=O)N(C)[C@@H](CC(C)C)C(=O)O[C@H](Cc2ccc(Cn3ccc(OC(F)F)n3)cc2)C(=O)N(C)[C@@H](CC(C)C)C(=O)O[C@H](C)C(=O)N1C [Example 1b-156, (3S,6R,9S,12R,15S,18R,21S,24R)-6,18-bis(4-((3-(difluoromethoxy)-1H-pyrazol-1-yl)methyl)benzyl)-3,9,15,21-tetraisobutyl-4,10,12,16,22,24-hexamethyl-1,7,13,19-tetraoxa-4,10,16,22-tetraazacyclotetracosan-2,5,8,11,14,17,20,23-octaone]	0.01 to 0.1 µM
CCOc1cc(C)n(Cc2ccc(C[C@H]3OC(=O)[C@H](CC(C)C)N(C)C(=O)[C@@H](C)OC(=O)[C@H](CC(C)C)N(C)C(=O)[C@@H](Cc4ccc(Cn5nc(OCC)cc5C)cc4)OC(=O)[C@H](CC(C)C)N(C)C(=O)[C@@H](C)OC(=O)[C@H](CC(C)C)N(C)C3=O)cc2)n1 [Example 1b-159, (3S,6R,9S,12R,15S,18R,21S,24R)-6,18-bis(4-((3-ethoxy-5-methyl-1H-pyrazol-1-yl)methyl)benzyl)-3,9,15,21-tetraisobutyl-4,10,12,16,22,24-hexamethyl-1,7,13,19-tetraoxa-4,10,16,22-tetraazacyclotetracosan-2,5,8,11,14,17,20,23-octaone]	0.01 to 0.1 µM
CC(C)C[C@H]1C(=O)O[C@H](Cc2ccc(Cn3cc(CO)c(C(F)(F)F)n3)cc2)C(=O)N(C)[C@@H](CC(C)C)C(=O)O[C@H](C)C(=O)N(C)[C@@H](CC(C)C)C(=O)O[C@H](Cc2ccc(Cn3cc(CO)c(C(F)(F)F)n3)cc2)C(=O)N(C)[C@@H](CC(C)C)C(=O)O[C@H](C)C(=O)N1C [Example 1b-162, (3S,6R,9S,12R,15S,18R,21S,24R)-6,18-bis(4-((4-(hydroxymethyl)-3-(trifluoromethyl)-1H-pyrazol-1-yl)methyl)benzyl)-3,9,15,21-tetraisobutyl-4,10,12,16,22,24-hexamethyl-1,7,13,19-tetraoxa-4,10,16,22-tetraazacyclotetracosan-2,5,8,11,14,17,20,23-octaone]	0.01 to 0.1 µM
CCOc1cc(C)nn1Cc1ccc(C[C@H]2OC(=O)[C@H](CC(C)C)N(C)C(=O)[C@@H](C)OC(=O)[C@H](CC(C)C)N(C)C(=O)[C@@H](Cc3ccc(Cn4nc(C)cc4OCC)cc3)OC(=O)[C@H](CC(C)C)N(C)C(=O)[C@@H](C)OC(=O)[C@H](CC(C)C)N(C)C2=O)cc1 [Example 1b-163, (3S,6R,9S,12R,15S,18R,21S,24R)-6,18-bis(4-((5-ethoxy-3-methyl-1H-pyrazol-1-yl)methyl)benzyl)-3,9,15,21-tetraisobutyl-4,10,12,16,22,24-hexamethyl-1,7,13,19-tetraoxa-4,10,16,22-tetraazacyclotetracosan-2,5,8,11,14,17,20,23-octaone]	0.01 to 0.1 µM
CCOc1cc(CC)nn1Cc1ccc(C[C@H]2OC(=O)[C@H](CC(C)C)N(C)C(=O)[C@@H](C)OC(=O)[C@H](CC(C)C)N(C)C(=O)[C@@H](Cc3ccc(Cn4nc(CC)cc4OCC)cc3)OC(=O)[C@H](CC(C)C)N(C)C(=O)[C@@H](C)OC(=O)[C@H](CC(C)C)N(C)C2=O)cc1 [Example 1b-169, (3S,6R,9S,12R,15S,18R,21S,24R)-6,18-bis(4-((5-ethoxy-3-ethyl-1H-pyrazol-1-yl)methyl)benzyl)-3,9,15,21-tetraisobutyl-4,10,12,16,22,24-hexamethyl-1,7,13,19-tetraoxa-4,10,16,22-tetraazacyclotetracosan-2,5,8,11,14,17,20,23-octaone]	0.01 to 0.1 µM
CCOc1cc(C2CC2)nn1Cc1ccc(C[C@H]2OC(=O)[C@H](CC(C)C)N(C)C(=O)[C@@H](C)OC(=O)[C@H](CC(C)C)N(C)C(=O)[C@@H](Cc3ccc(Cn4nc(C5CC5)cc4OCC)cc3)OC(=O)[C@H](CC(C)C)N(C)C(=O)[C@@H](C)OC(=O)[C@H](CC(C)C)N(C)C2=O)cc1 [Example 1b-170, (3S,6R,9S,12R,15S,18R,21S,24R)-6,18-bis(4-((3-cyclopropyl-5-ethoxy-1H-pyrazol-1-yl)methyl)benzyl)-3,9,15,21-tetraisobutyl-4,10,12,16,22,24-hexamethyl-1,7,13,19-tetraoxa-4,10,16,22-tetraazacyclotetracosan-2,5,8,11,14,17,20,23-octaone]	0.01 to 0.1 µM
CC(C)C[C@H]1C(=O)O[C@H](Cc2ccc(Cn3cc(N4CCCCC4)cn3)cc2)C(=O)N(C)[C@@H](CC(C)C)C(=O)O[C@H](C)C(=O)N(C)[C@@H](CC(C)C)C(=O)O[C@H](Cc2ccc(Cn3cc(N4CCCCC4)cn3)cc2)C(=O)N(C)[C@@H](CC(C)C)C(=O)O[C@H](C)C(=O)N1C [Example 1b-183, (3S,6R,9S,12R,15S,18R,21S,24R)-3,9,15,21-tetraisobutyl-4,6,10,16,18,22-hexamethyl-12,24-bis(4-((4-(piperidin-1-yl)-1H-pyrazol-1-yl)methyl)benzyl)-1,7,13,19-tetraoxa-4,10,16,22-tetraazacyclotetracosan-2,5,8,11,14,17,20,23-octaone]	0.01 to 0.1 µM
CC(C)C[C@H]1C(=O)O[C@H](Cc2ccc(Cn3cc(OCCN)cn3)cc2)C(=O)N(C)[C@@H](CC(C)C)C(=O)O[C@H](C)C(=O)N(C)[C@@H](CC(C)C)C(=O)O[C@H](Cc2ccc(Cn3cc(OCCN)cn3)cc2)C(=O)N(C)[C@@H](CC(C)C)C(=O)O[C@H](C)C(=O)N1C [Example 1b-185, (3S,6R,9S,12R,15S,18R,21S,24R)-6,18-bis(4-((4-(2-aminoethoxy)-1H-pyrazol-1-yl)methyl)benzyl)-3,9,15,21-tetraisobutyl-4,10,12,16,22,24-hexamethyl-1,7,13,19-tetraoxa-4,10,16,22-tetraazacyclotetracosan-2,5,8,11,14,17,20,23-octaone]	0.01 to 0.1 µM
Cc1nn(Cc2ccc(C[C@H]3OC(=O)[C@H](CC(C)C)N(C)C(=O)[C@@H](C)OC(=O)[C@H](CC(C)C)N(C)C(=O)[C@@H](Cc4ccc(Cn5nc(C)c(OC(C)C)c5C)cc4)OC(=O)[C@H](CC(C)C)N(C)C(=O)[C@@H](C)OC(=O)[C@H](CC(C)C)N(C)C3=O)cc2)c(C)c1OC(C)C [Example 1b-188, (3S,6R,9S,12R,15S,18R,21S,24R)-3,9,15,21-tetraisobutyl-6,18-bis(4-((4-isopropoxy-3,5-dimethyl-1H-pyrazol-1-yl)methyl)benzyl)-4,10,12,16,22,24-hexamethyl-1,7,13,19-tetraoxa-4,10,16,22-tetraazacyclotetracosan-2,5,8,11,14,17,20,23-octaone]	0.01 to 0.1 µM
CCOc1c(C)nn(Cc2ccc(C[C@H]3OC(=O)[C@H](CC(C)C)N(C)C(=O)[C@@H](C)OC(=O)[C@H](CC(C)C)N(C)C(=O)[C@@H](Cc4ccc(Cn5nc(C)c(OCC)c5C)cc4)OC(=O)[C@H](CC(C)C)N(C)C(=O)[C@@H](C)OC(=O)[C@H](CC(C)C)N(C)C3=O)cc2)c1C [Example 1b-191, (3S,6R,9S,12R,15S,18R,21S,24R)-6,18-bis(4-((4-ethoxy-3,5-dimethyl-1H-pyrazol-1-yl)methyl)benzyl)-3,9,15,21-tetraisobutyl-4,10,12,16,22,24-hexamethyl-1,7,13,19-tetraoxa-4,10,16,22-tetraazacyclotetracosan-2,5,8,11,14,17,20,23-octaone]	0.01 to 0.1 µM
CC(C)C[C@H]1C(=O)O[C@H](Cc2ccc(Cn3ccc(-c4cnccn4)n3)cc2)C(=O)N(C)[C@@H](CC(C)C)C(=O)O[C@H](C)C(=O)N(C)[C@@H](CC(C)C)C(=O)O[C@H](Cc2ccc(Cn3ccc(-c4cnccn4)n3)cc2)C(=O)N(C)[C@@H](CC(C)C)C(=O)O[C@H](C)C(=O)N1C [Example 1b-195, (3S,6R,9S,12R,15S,18R,21S,24R)-3,9,15,21-tetraisobutyl-4,6,10,16,18,22-hexamethyl-12,24-bis[[4-[(3-pyrazin-2-ylpyrazol-1-yl)methyl]phenyl]methyl]-1,7,13,19-tetraoxa-4,10,16,22-tetrazacyclotetracosane-2,5,8,11,14,17,20,23-octaone]	0.01 to 0.1 µM
CCOc1cn(Cc2ccc(C[C@H]3OC(=O)[C@H](CC(C)C)N(C)C(=O)[C@@H](C)OC(=O)[C@H](CC(C)C)N(C)C(=O)[C@@H](Cc4ccc(Cn5cc(OCC)c(C)n5)cc4)OC(=O)[C@H](CC(C)C)N(C)C(=O)[C@@H](C)OC(=O)[C@H](CC(C)C)N(C)C3=O)cc2)nc1C [Example 1b-198, (3S,6R,9S,12R,15S,18R,21S,24R)-6,18-bis[[4-[(4-ethoxy-3-methyl-pyrazol-1-yl)methyl]phenyl]methyl]-3,9,15,21-tetraisobutyl-4,10,12,16,22,24-hexamethyl-1,7,13,19-tetraoxa-4,10,16,22-tetrazacyclotetracosane-2,5,8,11,14,17,20,23-octaone]	0.01 to 0.1 µM
